Laboratory results as given in PMC5003509 (Journal of Medicinal Chemistry, 2015).

Key:
[1] = Metabolic stability in mouse liver microsomes, glucuronidation; assay type: in vitro ADME; details: in the presence of UDPGA
[2] = In vivo pharmacokinetics in CD1 mice; details: male, CD1, mouse, plasma, iv, 10 mg/kg
[3] = Metabolic stability in mouse liver microsomes, CYP-mediated; assay type: in vitro ADME; details: cofactor for CYP-dependent oxidation
hERG channel = hERG channel (Homo sapiens, UniProt Q12809); assay: hERG channel assay; details: concentrations up to 25 μM
recombinant human DAAO = recombinant human DAAO (Homo sapiens, UniProt P14920); assay: In vitro DAAO assay; assay type: biochemical
[4] = Effect on plasma pharmacokinetics of oral D-serine in mice; details: 11h (30 mg/kg, po) with D-serine (30 mg/kg, po)
NMDA receptor (MK801) = assay: NMDA receptor; assay type: binding; details: at 10 μM
[5] = tested on: glycine receptor (strychnine sensitive); assay: Glycine receptor; assay type: binding; details: at 10 μM
[6] = tested on: NMDA receptor (phencyclidine); assay: NMDA receptor; assay type: binding; details: at 10 μM
NMDA receptor (agonist) = assay: NMDA receptor; assay type: binding; details: at 10 μM
[7] = tested on: Salmonella typhimurium strain (TA100); assay: Ames test; assay type: cell-based; details: TA100, in the presence or absence of metabolic activation by S9 mixture

Sequence of recombinant human DAAO (P14920 whole entry): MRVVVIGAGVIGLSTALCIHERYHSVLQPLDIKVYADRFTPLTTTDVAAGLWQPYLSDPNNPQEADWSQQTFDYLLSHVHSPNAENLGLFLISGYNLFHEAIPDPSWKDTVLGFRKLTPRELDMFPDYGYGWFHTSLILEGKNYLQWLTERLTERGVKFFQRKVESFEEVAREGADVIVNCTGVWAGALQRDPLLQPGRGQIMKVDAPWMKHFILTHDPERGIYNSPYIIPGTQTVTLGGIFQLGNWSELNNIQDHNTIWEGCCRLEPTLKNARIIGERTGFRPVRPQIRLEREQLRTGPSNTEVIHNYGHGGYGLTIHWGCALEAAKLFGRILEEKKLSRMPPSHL
Sequence of hERG channel (Q12809 whole entry): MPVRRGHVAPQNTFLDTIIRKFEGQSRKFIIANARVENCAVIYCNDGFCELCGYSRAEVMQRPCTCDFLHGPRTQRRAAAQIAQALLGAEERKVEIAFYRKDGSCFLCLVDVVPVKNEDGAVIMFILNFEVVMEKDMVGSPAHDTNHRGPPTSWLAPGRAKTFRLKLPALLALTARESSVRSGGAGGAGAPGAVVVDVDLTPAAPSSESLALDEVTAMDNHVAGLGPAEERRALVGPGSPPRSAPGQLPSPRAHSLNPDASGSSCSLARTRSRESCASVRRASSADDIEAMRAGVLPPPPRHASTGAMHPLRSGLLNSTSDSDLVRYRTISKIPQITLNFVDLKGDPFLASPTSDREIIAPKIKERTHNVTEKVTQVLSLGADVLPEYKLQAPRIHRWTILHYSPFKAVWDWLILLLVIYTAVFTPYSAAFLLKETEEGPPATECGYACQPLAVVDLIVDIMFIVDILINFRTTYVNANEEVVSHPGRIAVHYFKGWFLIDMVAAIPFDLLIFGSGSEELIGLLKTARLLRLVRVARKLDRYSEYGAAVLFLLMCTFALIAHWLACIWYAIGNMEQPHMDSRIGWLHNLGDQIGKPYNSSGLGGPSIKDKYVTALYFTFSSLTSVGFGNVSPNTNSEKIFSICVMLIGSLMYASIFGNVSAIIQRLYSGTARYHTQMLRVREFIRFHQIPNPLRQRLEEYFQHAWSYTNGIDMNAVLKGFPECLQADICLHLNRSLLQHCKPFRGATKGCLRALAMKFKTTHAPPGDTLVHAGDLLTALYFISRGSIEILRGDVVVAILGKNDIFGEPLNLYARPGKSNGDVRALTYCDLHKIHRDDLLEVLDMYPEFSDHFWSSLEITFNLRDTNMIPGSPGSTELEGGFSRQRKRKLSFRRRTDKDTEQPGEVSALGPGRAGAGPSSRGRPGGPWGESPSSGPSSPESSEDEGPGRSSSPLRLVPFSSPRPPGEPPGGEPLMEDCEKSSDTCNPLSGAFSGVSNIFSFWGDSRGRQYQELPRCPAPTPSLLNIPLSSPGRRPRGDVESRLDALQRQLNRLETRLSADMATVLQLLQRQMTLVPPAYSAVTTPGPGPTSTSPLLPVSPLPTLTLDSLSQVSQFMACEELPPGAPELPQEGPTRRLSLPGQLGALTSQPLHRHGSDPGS

Question: For `O=c1[nH]nc(CCc2cc(F)cc(F)c2)cc1O` [8b, reference compound], which “glucuronidation in mouse liver microsomes” value (shortened to “glucuronidation”) [1] is on record?
Answer: Its value is “some resistance to glucuronidation”.

Question: And the AUC(0-t) [2]?
Answer: Its AUC(0-t) is 12700 ng·h/mL.

Question: Which “glucuronidation” value [1] does the source give for `O=c1[nH]c(=O)n(CCc2ccccc2)nc1O` [11e, 6-Hydroxy-2-phenethyl-1,2,4-triazine-3,5(2H,4H)-dione] here?
Answer: The value was “completely resistant to glucuronidation”.

Question: What about the “stability in mouse liver microsomes in the presence of NADPH” value [3] of the same compound?
Answer: The value was “stable”.

Question: For `O=c1[nH]c(=O)n(Cc2cccc3ccccc23)nc1O` [11h, 6-Hydroxy-2-(naphthalen-1-ylmethyl)-1,2,4-triazine-3,5(2H,4H)-dione], which hERG channel inhibition (hERG channel) is on record?
Answer: The hERG channel inhibition was “no inhibition at concentrations up to 25 μM”.

Question: What about the “effect of FAD concentration on IC50” value (recombinant human DAAO; escalation of FAD concentration from 10 to 100 μM) of the same compound?
Answer: Its value is “did not affect IC50 value”.

Question: And the mode of inhibition (recombinant human DAAO; versus D-serine, double reciprocal plot)?
Answer: Its mode of inhibition is “competitive inhibition”.

Question: What about the “glucuronidation” value [1] of the same compound?
Answer: The value was “completely resistant to glucuronidation”.

Question: And the “effect on plasma clearance of D-serine” value [4]?
Answer: The value was “substantially reduced”.

Question: And the “inhibition, NMDA receptor (MK801)” value (NMDA receptor (MK801))?
Answer: Its value is no more than 5% inhibition at 10 μM.

Question: What about the “inhibition, glycine receptor (strychnine sensitive)” value [5] of the same compound?
Answer: Its value is no more than 5% inhibition at 10 μM.

Question: What about the “inhibition, NMDA receptor (phencyclidine)” value [6] of the same compound?
Answer: The value was no more than 5% inhibition at 10 μM.

Question: And the “inhibition, NMDA receptor (agonist)” value (NMDA receptor (agonist))?
Answer: The value was no more than 5% inhibition at 10 μM.

Question: What about the “stability in mouse liver microsomes in the presence of NADPH” value [3] of the same compound?
Answer: Its value is “stable”.

Question: And the mutagenicity [7]?
Answer: Its mutagenicity is “No evidence of mutagenicity”.

Question: Which “glucuronidation” value [1] does the source give for `O=c1cc(CSc2ccc(Cl)c(Cl)c2)occ1O` [compound 7, reference compound] here?
Answer: Its value is “extensively glucuronidated”.

Question: With `O=c1[nH]c(=S)n(CCc2ccccc2)nc1O` [compound 30, 6-Hydroxy-2-phenethyl-3-thioxo-3,4-dihydro-1,2,4-triazin-5(2H)-one] as the compound, how does the “glucuronidation” value [1] read?
Answer: Its value is “metabolically stable against glucuronidation”.

Question: Which “glucuronidation” value [1] does the source give for `O=c1[nH]c(=O)n(CCc2ccccc2)cc1O` [compound 32, 5-Hydroxy-1-phenethylpyrimidine-2,4(1H,3H)-dione] here?
Answer: Its value is “fully glucuronidated within 60 min”.
